Reference: patent US20030113330A1, “Methods for treating pulmonary fibrosis” (priority 1999, published 2003)
Entries after “also recorded” stand apart in the source; their conditions may differ.

Legend:
Caspase 1/ICE = molecular target: T1, Caspase 1/ICE (Homo sapiens, UniProt P29466); experiment: Caspase 1/ICE activity in intact A549 cells (Ac-YVAD-AMC); format: cell-based; conditions: 50 ng/ml captopril
T1 construct: endogenous in cells; host or cells: A549 human lung epithelial cell line
T1 sequence (P29466 120-404): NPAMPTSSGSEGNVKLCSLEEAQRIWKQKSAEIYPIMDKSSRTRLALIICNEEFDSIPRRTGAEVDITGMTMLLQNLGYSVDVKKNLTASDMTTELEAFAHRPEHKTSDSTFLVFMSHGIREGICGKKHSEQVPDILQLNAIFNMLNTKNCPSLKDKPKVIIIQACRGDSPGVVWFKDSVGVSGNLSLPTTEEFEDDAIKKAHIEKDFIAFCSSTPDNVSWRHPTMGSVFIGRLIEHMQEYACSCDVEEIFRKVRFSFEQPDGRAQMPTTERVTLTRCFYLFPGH
Procedure: (§1) Caspase Assays. The enzymatic activities of Caspase 1/interleukin-1b-converting enzyme (ICE) and Caspase 3/CPP32/YAMA were determined in intact A549 cell cultures pre-incubated under conditions identical to those used for morphologic assays of apoptosis. After a 20 h incubation with antibodies and/or captopril, cells were trypsinized from the culture vessels and resuspended in serum-free culture medium containing anti-FAS antibodies and/or captopril at the same concentrations as during the preincubation. After one hour, fluorogenic peptide substrates specific to each enzyme were added separately to cuvettes containing cell suspension for measurement of total activity in intact cells. […] Production of fluorescent product over time was monitored in a spectrofluorometer at 380 nm excitation and 450 nm emission. […]
(§2) The same concentration of captopril also abrogated FAS-induced stimulation of Caspase 1 (ICE) (p<0.01 compared to control) and Caspase 3/CPP32/YAMA (p<0.01 compared to FASmAb treatment alone) activities. […] Cells were then analyzed in suspension culture for the activity of Caspase 1/ICE with peptide substrate Ac-YVAD-AMC or for activity of Caspase 3/CPP32/YAMA with peptide substrate Ac-DEVD-AMC as described above. […]

Caspase 3/CPP32/YAMA = molecular target: T2, Caspase 3/CPP32/YAMA (Homo sapiens, UniProt P42574); experiment: Caspase 3/CPP32/YAMA activity in intact A549 cells (Ac-DEVD-AMC); format: cell-based; conditions: 50 ng/ml captopril
T2 construct: endogenous in cells; host or cells: A549 human lung epithelial cell line
T2 sequence (P42574 29-277): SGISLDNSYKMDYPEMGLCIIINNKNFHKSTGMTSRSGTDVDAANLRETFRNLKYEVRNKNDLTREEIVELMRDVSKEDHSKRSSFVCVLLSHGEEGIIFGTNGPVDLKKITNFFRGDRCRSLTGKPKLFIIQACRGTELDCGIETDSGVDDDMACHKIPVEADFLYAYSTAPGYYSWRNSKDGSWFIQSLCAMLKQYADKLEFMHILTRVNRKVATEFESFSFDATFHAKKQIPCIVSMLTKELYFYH
Procedure: as §1, §2

primary rat AEC = experiment: Angiotensinogen-induced apoptosis in primary rat AEC; format: cell-based; conditions: ANG 5.0 uM; saralasin 50 ug/ml, lisinopril 500 ng/ml
Procedure: Cell Culture. […] J. Physiol. Suppl. […] J. Physiol. […] J. Physiol. […] J. Physiol. Suppl.
Detection of Apoptosis. […] J. Physiol. […] Assay of Annexin V binding by flow cytometry was performed essentially as described for human lung fibroblasts in Uhal, et al., Am. J. Physiol. […] Assay of Caspase-3 activity was performed on viable suspension cultures as reported in Uhal, et al., Am. J. Physiol.
For microscopy, cells were cultured on glass cover slips, incubated with test reagents and fixed with 70% ethanol. The fixed cells were immunolabeled overnight at 4° C. with monoclonal antibodies to cytokeratins 7 and 19 (Chemicon International, Temecula, Calif.), and then for one hour at 37° C. with anti-mouse IgG-rhodamine and DNAse-free RNAse (Boehringer Mannheim, Indianapolis, Ind.) The cover slips were then rinsed in distilled water three times and mounted under Fluoromount Solution (Southern Biotechnology Associates, Birmingham, Ala.) containing 5 ug/ml propidium iodide. Photomicroscopy was performed as described in Uhal, et al., Am. J. Physiol.

[1] = system: angiotensinogen (ANGEN) mRNA; experiment: Quantitative RT-PCR of angiotensinogen mRNA in Fas-activated A549 cells; format: cell-based, human; conditions: A549, CH-11
Procedure: RT-PCR. Reverse transcriptase polymerase chain reaction (RT-PCR) assay of angiotensinogen gene products was performed as described in Wang et al., Am. J. Physiol. 276:L885-L889 (1999) in a total reaction volume of 30 μl. Total RNA was isolated by the RNeasy Mini protocol (Qiagen Co., Santa Clarita, Calif.). The reaction was performed for 1 hour at 45 C. followed by 20 cycles of PCR amplification. PCR amplification was performed with 10 ul aliquots of cDNA, equivalent to 1 ug of the starting RNA. The identity of expressed genes was determined by expected size of the PCR product in 1.6% agarose gels.
For RT-PCR from the human A549 cells, the following primers were used: for angiotensinogen, “outer” primer of a two-step nested assay, coding=5′ GCTTTC-[…] 3′ [SEQ. ID NO. ______], and noncoding=5′ […] 3′ [SEQ. ID. NO. ______]; for the “inner” primer of the nested assay, coding=5′ […] 3′ [SEQ. ID NO. ______], and noncoding=5′ […] 3′ [SEQ. ID NO. ______]. These primers yield a final PCR product of 447 bp (8). […]
To confirm this, total RNA was isolated from human A549 cells or primary rat AEC that were unactivated (CTL) or activated with Fas-ligating CH-11 antibody or purified Fas ligand in the presence or absence of saralasin (SAR). Quantitative RT-PCR was performed with primers specific for human or rat angiotensinogen (ANGEN), β-actin or β-microglobulin (b-MG). […]

## C[C@H](CS)C(=O)N1CCC[C@H]1C(=O)O [captopril]
Caspase 1/ICE
  effect on FAS-inducible Caspase 1 activity: completely abrogated
Caspase 3/CPP32/YAMA
  effect on FAS-inducible Caspase 3 activity: significantly decreased; also recorded: abrogated

## NCCCC[C@H](N[C@@H](CCc1ccccc1)C(=O)O)C(=O)N1CCC[C@H]1C(=O)O [lisinopril]
Primary rat AEC
  inhibition of angiotensinogen-induced apoptosis: blocked

## CNCC(=O)N[C@@H](CCCN=C(N)N)C(=O)N[C@H](C(=O)N[C@@H](Cc1ccc(O)cc1)C(=O)N[C@H](C(=O)N[C@@H](Cc1cnc[nH]1)C(=O)N1CCC[C@H]1C(=O)N[C@@H](C)C(=O)O)C(C)C)C(C)C [saralasin]
Primary rat AEC
  inhibition of angiotensinogen-induced apoptosis: completely inhibited
[1]
  effect on accumulation of ANGEN mRNA during Fas activation: had no effect
